Results published in patent US20100099561A1, “HETEROBICYCLIC ALKYLTHIO-BRIDGED ISOXAZOLINES” (E.I. DU PONT DE NEMOURS AND COMPANY, priority 2008, published 2010).

Legend:
Assay type in all cases: in vivo
[1] = test system: large crabgrass (Digitaria sanguinalis); experiment: Test A postemergence, large crabgrass; conditions: 0 to 100 scale (0 no effect, 100 complete control)
How it was run: (§1)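 Seeds planted in loam–sand blend; compounds in non-phytotoxic solvent with surfactant applied as directed preemergence soil spray, or postemergence to plants 2–10 cm tall at one- to two-leaf stage. After ~10 days in greenhouse, injury rated visually versus untreated controls on 0–100 scale (100 = complete control).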

[2] = test system: large crabgrass (Digitaria sanguinalis); experiment: Test A preemergence, large crabgrass; conditions: 0 to 100 scale (0 no effect, 100 complete control)
How it was run: as §1

[3] = test system: barnyardgrass (Echinochloa crus-galli); experiment: Test A postemergence, barnyardgrass; conditions: 0 to 100 scale (0 no effect, 100 complete control)
How it was run: as §1

[4] = test system: morningglory (Ipomoea spp.); experiment: Test A postemergence, morningglory; conditions: 0 to 100 scale (0 no effect, 100 complete control)
How it was run: as §1

corn (Zea mays) [5] = experiment: Test A postemergence, corn; conditions: 0 to 100 scale (0 no effect, 100 complete control)
How it was run: as §1

[6] = test system: pigweed (Amaranthus retroflexus); experiment: Test A postemergence, pigweed; conditions: 0 to 100 scale (0 no effect, 100 complete control)
How it was run: as §1

[7] = test system: giant foxtail (Setaria faberi); experiment: Test A preemergence, giant foxtail; conditions: 0 to 100 scale (0 no effect, 100 complete control)
How it was run: as §1

[8] = test system: barnyardgrass (Echinochloa crus-galli); experiment: Test A preemergence, barnyardgrass; conditions: 0 to 100 scale (0 no effect, 100 complete control)
How it was run: as §1

[9] = test system: wheat (Triticum aestivum); experiment: Test A preemergence, wheat; conditions: 0 to 100 scale (0 no effect, 100 complete control)
How it was run: as §1

[10] = test system: velvetleaf (Abutilon theophrasti); experiment: Test A preemergence, velvetleaf; conditions: 0 to 100 scale (0 no effect, 100 complete control)
How it was run: as §1

corn (Zea mays) [11] = experiment: Test A preemergence, corn; conditions: 0 to 100 scale (0 no effect, 100 complete control)
How it was run: as §1

[12] = test system: umbrella sedge (Cyperus difformis); experiment: Test B flooded paddy test, umbrella sedge; conditions: Flood, scale 0 to 100
How it was run: (§2)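 Compounds were added directly to paddy water over 2-leaf-stage plants in pots flooded 3 cm above soil, water depth maintained. Visual injury scored against controls after 13 to 15 days in greenhouse, 0 (none) to 100 (complete control); dash indicates no result.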

rice (Oryza sativa) = experiment: Test B flooded paddy test, rice; conditions: Flood, scale 0 to 100
How it was run: as §2

[13] = test system: ducksalad (Heteranthera limosa); experiment: Test B flooded paddy test, ducksalad; conditions: Flood, scale 0 to 100
How it was run: as §2

[14] = test system: velvetleaf (Abutilon theophrasti); experiment: Test A postemergence, velvetleaf; conditions: 0 to 100 scale (0 no effect, 100 complete control)
How it was run: as §1

[15] = test system: giant foxtail (Setaria faberi); experiment: Test A postemergence, giant foxtail; conditions: 0 to 100 scale (0 no effect, 100 complete control)
How it was run: as §1

[16] = test system: barnyardgrass (Echinochloa crus-galli); experiment: Test B flooded paddy test, barnyardgrass; conditions: Flood
How it was run: as §2

[17] = test system: wheat (Triticum aestivum); experiment: Test A postemergence, wheat; conditions: 0 to 100 scale (0 no effect, 100 complete control)
How it was run: as §1

[18] = test system: pigweed (Amaranthus retroflexus); experiment: Test A preemergence, pigweed; conditions: 0 to 100 scale (0 no effect, 100 complete control)
How it was run: as §1

[19] = test system: morningglory (Ipomoea spp.); experiment: Test A preemergence, morningglory; conditions: 0 to 100 scale (0 no effect, 100 complete control)
How it was run: as §1

[20] = 250 g ai/ha, scale 0 to 100 (0 no effect, 100 complete control)

CC1(C)CC([S+]([O-])Cc2c(C(F)(F)F)nc3n(c2=O)CCCO3)=NO1 (stereo not shown) [Compound 3]
50: Plant response rating, Crabgrass, Large ([1]; 500 g ai/ha) | Plant response rating, Crabgrass, Large ([2]; 125 g ai/ha) | Plant response rating, Barnyardgrass ([3]; 500 g ai/ha) | Plant response rating, Velvetleaf ([14]; 500 g ai/ha) | Plant response rating, Foxtail, Giant ([15]; 500 g ai/ha)
40: Plant response rating, Foxtail, Giant ([7]; 125 g ai/ha) | Plant response rating, Ducksalad ([13]; 250 g ai/ha) | Plant response rating, Pigweed ([18]; 125 g ai/ha)
20: Plant response rating, Crabgrass, Large ([1]; 125 g ai/ha) | Plant response rating, Velvetleaf ([14]; 125 g ai/ha)
70: Plant response rating, Crabgrass, Large ([2]; 500 g ai/ha) | Plant response rating, Foxtail, Giant ([7]; 500 g ai/ha)
60: Plant response rating, Barnyardgrass ([8]; 500 g ai/ha) | Plant response rating, Pigweed ([18]; 500 g ai/ha)
30: Plant response rating, Pigweed ([6]; 500 g ai/ha) | Plant response rating, Barnyardgrass ([8]; 125 g ai/ha)
0: Plant response rating, Barnyardgrass ([3]; 125 g ai/ha) | Plant response rating, Morningglory ([4]; 125 g ai/ha) | Plant response rating, Morningglory ([4]; 500 g ai/ha) | Plant response rating, Corn (corn (Zea mays) [5]; 125 g ai/ha) | Plant response rating, Corn (corn (Zea mays) [5]; 500 g ai/ha) | Plant response rating, Pigweed ([6]; 125 g ai/ha) | Plant response rating, Wheat ([9]; 125 g ai/ha) | Plant response rating, Wheat ([9]; 500 g ai/ha) | Plant response rating, Velvetleaf ([10]; 125 g ai/ha) | Plant response rating, Velvetleaf ([10]; 500 g ai/ha) | Plant response rating, Corn (corn (Zea mays) [11]; 125 g ai/ha) | Plant response rating, Corn (corn (Zea mays) [11]; 500 g ai/ha) | Plant response rating, Sedge, Umbrella ([12]; 62 g ai/ha) | Plant response rating, Sedge, Umbrella ([12]; 250 g ai/ha) | Plant response rating, Rice (rice (Oryza sativa); 62 g ai/ha) | Plant response rating, Rice (rice (Oryza sativa); 250 g ai/ha) | Plant response rating, Ducksalad ([13]; 62 g ai/ha) | Plant response rating, Foxtail, Giant ([15]; 125 g ai/ha) | Plant response rating, Barnyardgrass ([16]; 62 g ai/ha, scale 0 to 100) | Plant response rating, Barnyardgrass [16, 20] | Plant response rating, Wheat ([17]; 125 g ai/ha) | Plant response rating, Wheat ([17]; 500 g ai/ha) | Plant response rating, Morningglory ([19]; 125 g ai/ha) | Plant response rating, Morningglory ([19]; 500 g ai/ha)

CC1(C)CC(S(=O)(=O)Cc2c(C(F)(F)F)nc3n(c2=O)CCCO3)=NO1 [Compound 4]
40: Plant response rating, Wheat ([9]; 500 g ai/ha)
10: Plant response rating, Velvetleaf ([10]; 125 g ai/ha) | Plant response rating, Wheat ([17]; 500 g ai/ha)
90: Plant response rating, Foxtail, Giant ([7]; 125 g ai/ha) | Plant response rating, Velvetleaf ([10]; 500 g ai/ha)
0: Plant response rating, Morningglory ([4]; 125 g ai/ha) | Plant response rating, Corn (corn (Zea mays) [5]; 125 g ai/ha) | Plant response rating, Wheat ([9]; 125 g ai/ha) | Plant response rating, Corn (corn (Zea mays) [11]; 125 g ai/ha) | Plant response rating, Sedge, Umbrella ([12]; 31 g ai/ha) | Plant response rating, Sedge, Umbrella ([12]; 62 g ai/ha) | Plant response rating, Sedge, Umbrella ([12]; 125 g ai/ha) | Plant response rating, Sedge, Umbrella ([12]; 250 g ai/ha) | Plant response rating, Rice (rice (Oryza sativa); 31 g ai/ha) | Plant response rating, Rice (rice (Oryza sativa); 62 g ai/ha) | Plant response rating, Rice (rice (Oryza sativa); 125 g ai/ha) | Plant response rating, Rice (rice (Oryza sativa); 250 g ai/ha) | Plant response rating, Ducksalad ([13]; 31 g ai/ha) | Plant response rating, Ducksalad ([13]; 62 g ai/ha) | Plant response rating, Ducksalad ([13]; 125 g ai/ha) | Plant response rating, Ducksalad ([13]; 250 g ai/ha) | Plant response rating, Barnyardgrass ([16]; 31 g ai/ha, scale 0 to 100) | Plant response rating, Barnyardgrass ([16]; 62 g ai/ha, scale 0 to 100) | Plant response rating, Barnyardgrass ([16]; 125 g ai/ha, scale 0 to 100) | Plant response rating, Barnyardgrass [16, 20] | Plant response rating, Wheat ([17]; 125 g ai/ha) | Plant response rating, Morningglory ([19]; 125 g ai/ha)
60: Plant response rating, Crabgrass, Large ([1]; 125 g ai/ha) | Plant response rating, Crabgrass, Large ([2]; 125 g ai/ha) | Plant response rating, Pigweed ([6]; 500 g ai/ha)
100: Plant response rating, Crabgrass, Large ([2]; 500 g ai/ha) | Plant response rating, Foxtail, Giant ([7]; 500 g ai/ha) | Plant response rating, Barnyardgrass ([8]; 500 g ai/ha) | Plant response rating, Pigweed ([18]; 500 g ai/ha)
30: Plant response rating, Pigweed ([6]; 125 g ai/ha) | Plant response rating, Pigweed ([18]; 125 g ai/ha)
70: Plant response rating, Barnyardgrass ([3]; 125 g ai/ha) | Plant response rating, Barnyardgrass ([8]; 125 g ai/ha) | Plant response rating, Velvetleaf ([14]; 500 g ai/ha) | Plant response rating, Foxtail, Giant ([15]; 125 g ai/ha) | Plant response rating, Morningglory ([19]; 500 g ai/ha)
80: Plant response rating, Crabgrass, Large ([1]; 500 g ai/ha) | Plant response rating, Barnyardgrass ([3]; 500 g ai/ha) | Plant response rating, Foxtail, Giant ([15]; 500 g ai/ha)
50: Plant response rating, Morningglory ([4]; 500 g ai/ha) | Plant response rating, Corn (corn (Zea mays) [5]; 500 g ai/ha) | Plant response rating, Corn (corn (Zea mays) [11]; 500 g ai/ha) | Plant response rating, Velvetleaf ([14]; 125 g ai/ha)
